In ChEMBL document CHEMBL1131693, “Synthesis and methemoglobin toxicity of the amides of 6/7 mono or disubstituted quinolone” (1999) one finds Activity and Methemoglobin data, which are given here for twelve compounds.

The species named for one test is Canis lupus familiaris. The test is described as follows: In vitro activity against canine methemoglobin reductase at 33 uM. Set-up: unit not given here.
The species named for test [1] is Canis familiaris. The test is described as follows: In vitro activity on methemoglobin formation at 5 mM concentration in blood from a normal Beagle dog. The format is functional, Canis lupus familiaris.
Test [2] is filed under the species Canis familiaris. The test is described as follows: In vitro activity on methemoglobin formation at 1 mM concentration in blood from a normal Beagle dog; Nil. The format is functional, Canis lupus familiaris.
The species entered for test [3] is Canis familiaris. The test is described as follows: In vitro activity on methemoglobin formation at 5 mM concentration in blood from a normal Beagle dog; Nil. Conditions: Canis lupus familiaris. The format is functional.
The species named for test [4] is Canis familiaris. The test is described as follows: In vitro activity on methemoglobin formation at 1 mM concentration in blood from a normal Beagle dog. It is filed as functional, Canis lupus familiaris.

`CCCCCCCCNC(=O)c1cnc2cc(Cl)c(F)cc2c1O` showed an Activity in the test listed under Canis lupus familiaris of 0.064. For the same compound, the Methemoglobin in the test filed under Canis familiaris [1] is on record as 29.3%; in the test filed under Canis familiaris [2], 1.7%.

In the test listed under Canis lupus familiaris, `CCN(CC)CCCC(C)NC(=O)c1cnc2cc(Cl)c(F)cc2c1O` (stereo unspecified) returned an Activity of 0.064. The values for the Methemoglobin in the test listed under Canis familiaris [1] and in the test listed under Canis familiaris [2] (Canis lupus familiaris) were 16.9% and “Nil”, respectively.

Turning to `CCCCCCCCNC(=O)c1cnc2ccc(F)cc2c1O`, the Activity in the test listed under Canis lupus familiaris came out at 0.064. Besides, the Methemoglobin in the test filed under Canis familiaris [1] is recorded as 18.9%; in the test filed under Canis familiaris [2] (Canis lupus familiaris), “Nil”.

For `CN1CCN(C(=O)c2cnc3ccc([N+](=O)[O-])cc3c2O)CC1`, in the test filed under Canis lupus familiaris, the Activity stood at 0.064. For the same compound, the Methemoglobin in the test filed under Canis familiaris [1] is 8.6%; in the test listed under Canis familiaris [2] (Canis lupus familiaris), “Nil”.

In turn, `O=C(NC1CCCCC1)c1cnc2cc(Cl)c(F)cc2c1O` came in with an Activity in the test listed under Canis lupus familiaris of 0.064. For the same compound, the Methemoglobin entry in the test listed under Canis familiaris [3] and in the test filed under Canis familiaris [2] (Canis lupus familiaris) was “Nil” in each case.

`O=C(NC1CCCCC1)c1cnc2ccc([N+](=O)[O-])cc2c1O` showed an Activity in the test listed under Canis lupus familiaris of 0.064. Moreover, the Methemoglobin is given as 6.8% in the test filed under Canis familiaris [1] and “Nil” in the test listed under Canis familiaris [2] (Canis lupus familiaris).

For `CCN(CC)CCCC(C)NC(=O)c1cnc2ccc([N+](=O)[O-])cc2c1O` (stereo unspecified), in the test listed under Canis lupus familiaris, the Activity worked out at 0.064. Further, the Methemoglobin in the test listed under Canis familiaris [1] is recorded as 5.17%; in the test filed under Canis familiaris [2] (Canis lupus familiaris), “Nil”.

`CCCCCCCCNC(=O)c1cnc2ccc([N+](=O)[O-])cc2c1O`: the Activity in the test filed under Canis lupus familiaris stood at 0.064. Besides, the figures for the Methemoglobin in the test listed under Canis familiaris [1] and in the test filed under Canis familiaris [2] (Canis lupus familiaris) were 7.7% and “Nil”, respectively.

In the test filed under Canis lupus familiaris, `CN1CCN(C(=O)c2cnc3cc(Cl)c(F)cc3c2O)CC1` gave an Activity of 0.064. Further, the Methemoglobin entry in the test filed under Canis familiaris [3] and in the test filed under Canis familiaris [2] (Canis lupus familiaris) was “Nil” throughout.

For `O=C(NC1CCCCC1)c1cnc2ccc(F)cc2c1O`, the Activity in the test filed under Canis lupus familiaris turned out to be 0.064. The Methemoglobin in the test filed under Canis familiaris [1] is recorded as 1.5%; in the test listed under Canis familiaris [2] (Canis lupus familiaris), “Nil”.

For the compound `CN1CCN(C(=O)c2cnc3ccc(F)cc3c2O)CC1`, the Activity in the test filed under Canis lupus familiaris is 0.064. Further, the Methemoglobin in the test listed under Canis familiaris [1] was 2%; in the test filed under Canis familiaris [2] (Canis lupus familiaris) it was “Nil”.

With `CCN(CC)CCCC(C)NC(=O)c1cnc2ccc(F)cc2c1O` (stereo unspecified), the Activity in the test filed under Canis lupus familiaris came out at 0.064. The Methemoglobin is given as 1.7% in the test filed under Canis familiaris [4] and 22.4% in the test filed under Canis familiaris [1].
